Results published in US20220378681A1, “SKIN CARE FORMULATION WITH LIPOPHILIC PEPTIDES” (DECIEM BEAUTY GROUP INC., priority 2019, published 2022).

Test: Solubility of SYM3D in oils
Type: physicochemical
Experimental: Phase B may be prepared by adding MCT oil into a mixing vessel, and incorporating further ingredients such as one or more oil-soluble active ingredients. The ingredients are mixed at room temperature at a speed of 3000 RPM, with side sweep scraping at 15 RPM. Samples should be taken via the valve at the bottom of the kettle and tested by centrifugation, and the solution also visibly inspected to ensure complete incorporation of the second ingredient. Centrifugation of a sample of the mixture is an optional step to ensure complete dissolution of the second ingredient.
Amounts of SYM3D that would be effective in the invented formulation range from 0.1 to 1% by weight of the overall formulation. The specific amount used by the inventors in a sample formulation was 0.5%. SYM3D is selectively soluble in certain oils. […] It is therefore important to include an oil component such as MCT oil which is compatible with SYM3D if it is being used.

CCCc1cc(OC)c2c(c1)C(C)C(c1ccc(O)c(OC)c1)O2 (centres unmarked) [SYM3D, dihydrodehydrodiisoeugenol]
solubility in MCT oil (MCT oil, room temperature, 3000 RPM mixing): can be solubilized
solubility in squalane (squalane): not soluble
